We go through six compounds from patent publication US4232148A, “6-Deoxyneamines” (The Upjohn Company, priority 1979, dated 1980).

Values after ≈ are worked out from the molar mass of the structure shown. Where two headings read alike, the source gives them in different places.

Type in all cases: cell-based
For one assay, the system named is B. cereus UC 3145. The assay is described as follows: standard disc plate assay, zone of inhibition. The settings on record: Bacillus cereus, UC3145, read-out: Zones of Inhibition, 1 mg/ml; 12.5 mm paper discs. The source says:
(§1) The compounds of formulas (V, VII, IX, XI, XIV, XVI, and XIX) are active as antibacterials and can be used in various environments to erradicate or control susceptible microorganisms. Tables I and II set forth the in vitro antibacterial test results for representative compounds of the present invention. The results were obtained with a standard disc plate assay using 12.5 mm paper discs.

The next assay relates to E. coli UC 51. The assay is described as follows: standard disc plate assay, zone of inhibition. The conditions noted are these: Escherichia coli, 12.5 mm paper discs.
Excerpt: as §1

For another assay, the system named is S. lutea UC 130. The assay is described as follows: standard disc plate assay, zone of inhibition. The conditions noted are these: Micrococcus luteus, UC130, read-out: Zones of Inhibition.
Excerpt: as §1

The test system of a further assay is S. schottmeulleri UC 126. The experiment in a line: standard disc plate assay, zone of inhibition. The conditions noted are these: 12.5 mm paper discs, read-out: Zones of Inhibition; for zone of inhibition at 1000 µg/mL: 1 mg/ml.
Excerpt: as §1

For a further assay, the system named is D. pneumoniae UC 41. The experiment in a line: standard microplate test in BHI Agar, MIC. The settings on record: Streptococcus pneumoniae, UC41, 37°, 20 hours, read-out: Minimal Inhibitory Concentration. The protocol: (§2) The compounds VII, XI, XVβ, XVα and XVI were tested in a standard microplate test in BHI (Brain Heart Infusion) Agar at a concentration of 1 mg./ml. and dilutions thereof at 37° incubation temperature. The end points are read at 20 hours. BHI Agar is supplied by Difco Laboratories, Detroit, Mich., U.S.A. and has the following compositions:
(§3) Calf brains, infusion from: 200 gm.
(§4) Beef heart, infusion from: 250 gm.
(§5) Bacto Proteose-peptone, Difco: 10 gm.
(§6) Bacto-Dextrose, Difco: 1 gm.
(§7) Disodium phosphate: 2.5 gm.

The test system of a further assay is K. pneumoniae UC 58. The experiment in a line: standard microplate test in BHI Agar, MIC. The conditions noted are these: Klebsiella pneumoniae, UC58, 20 h. The protocol:
as §2, §3, §4, §5, §6, §7

For the next assay, the system named is P. morganii UC 3186. The experiment in a line: standard microplate test in BHI Agar, MIC. The settings on record: Morganella morganii, UC3186, 20 h. The protocol:
as §2, §3, §4, §5, §6, §7

A further assay relates to S. aureus UC 76. The assay is described as follows: standard microplate test in BHI Agar, MIC. The conditions noted are these: Staphylococcus aureus, UC76, 20 h, read-out: Minimal Inhibitory Concentration. The protocol:
as §2, §3, §4, §5, §6, §7

In another assay the test system is S. faecalis UC 694. The assay is described as follows: standard microplate test in BHI Agar, MIC. The conditions noted are these: Enterococcus faecalis. The protocol: as §2, §3, §4, §5, §6, §7
The next assay has as its system S. flexneri UC 143. The experiment in a line: standard microplate test in BHI Agar, MIC. The conditions noted are these: Shigella flexneri, UC143, 37°, 20 hours. On the procedure: as §2, §3, §4, §5, §6, §7
The next assay concerns S. pyogenes UC 152. The assay is described as follows: standard microplate test in BHI Agar, MIC. The settings on record: Streptococcus pyogenes, UC152, 20 h. On the procedure:
as §2, §3, §4, §5, §6, §7

The subject of the next assay is S. schottmuelleri UC 126. The assay is described as follows: standard microplate test in BHI Agar, MIC. The conditions noted are these: 37°, 20 hours. On the procedure:
as §2, §3, §4, §5, §6, §7

A further assay has as its system S. typhi UC 215. The assay is described as follows: standard microplate test in BHI Agar, MIC. The settings on record: Salmonella enterica, 20 h, read-out: Minimal Inhibitory Concentration. The protocol:
as §2, §3, §4, §5, §6, §7

The next assay has as its system E. coli UC 311. The experiment in a line: standard microplate test in BHI Agar, MIC. The settings on record: Escherichia coli, UC311, 20 h, read-out: Minimal Inhibitory Concentration. On the procedure: as §2, §3, §4, §5, §6, §7
For a further assay, the system named is P. mirabilis UC 6671. The experiment in a line: standard microplate test in BHI Agar, MIC. The conditions noted are these: Proteus mirabilis, UC6671, 37°, 20 hours. On the procedure:
as §2, §3, §4, §5, §6, §7

In another assay the test system is P. vulgaris UC 93. The experiment in a line: standard microplate test in BHI Agar, MIC. The conditions noted are these: Proteus vulgaris, UC93, 37°, 20 hours. The protocol: as §2, §3, §4, §5, §6, §7
A further assay concerns S. marcescens UC 131. The assay is described as follows: standard microplate test in BHI Agar, MIC. The conditions noted are these: Serratia marcescens, UC131, 37°, 20 hours. On the procedure:
as §2, §3, §4, §5, §6, §7

A further assay relates to E. coli UC 45. The assay is described as follows: standard microplate test in BHI Agar, MIC. The settings on record: Escherichia coli, UC45, 37°, 20 hours, read-out: Minimum Inhibitory Concentration. The protocol:
as §2, §3, §4, §5, §6, §7

The test system of a further assay is S. pneumoniae I UC 41. The assay is described as follows: standard microplate test in BHI Agar, MIC. The conditions noted are these: Streptococcus pneumoniae, UC41, 37°, 20 hours, read-out: Minimum Inhibitory Concentration. The protocol:
as §2, §3, §4, §5, §6, §7

A further assay concerns S. aureus UC 80. The assay is described as follows: standard disc plate assay, zone of inhibition. The conditions noted are these: Staphylococcus aureus, UC80, read-out: Zones of Inhibition, 1 mg/ml; 12.5 mm paper discs.
Excerpt: as §1

Setting [1] is: read-out: Minimal Inhibitory Concentration.
The mark [2] stands for this setting: UC694, 20 h, read-out: Minimal Inhibitory Concentration.
Where [3] appears, read: read-out: Minimum Inhibitory Concentration.

For `NC[C@H]1O[C@H](O[C@@H]2[C@@H](N)C[C@@H](N)C[C@H]2OC2O[C@H](CO)[C@@H](O)[C@H]2O)[C@H](N)[C@@H](O)[C@@H]1O` (single isomer, unassigned) [Compound XVα, O-2,6-Diamino-2,6-dideoxy-α-D-glucopyranosyl (1→4)-O-[α-D-ribofuranosyl(1→5)]-2,6-dideoxy-D-streptamine], the zone of inhibition at 1000 µg/mL in the assay on B. cereus UC 3145 stood at 20 mm; in the assay with E. coli UC 51 (UC51, read-out: Zones of Inhibition, 1 mg/ml), 24 mm; in the assay with S. lutea UC 130, 16 mm; in the assay on S. schottmeulleri UC 126 it was 20 mm. Further, the MIC with D. pneumoniae UC 41 was 125 µg/mL (≈ 285 µM); in the assay on K. pneumoniae UC 58 (setting [1]), 15.6 µg/mL (≈ 35.6 µM); in the assay on P. morganii UC 3186 (setting [1]) it was 125 µg/mL (≈ 285 µM); in the assay on S. aureus UC 76, 125 µg/mL (≈ 285 µM); in the assay with S. faecalis UC 694 (setting [2]) it was above 500 µg/mL; with S. flexneri UC 143 (setting [1]), 500 µg/mL (≈ 1140 µM). Also, the MIC in the assay with S. pyogenes UC 152 (setting [1]) was 31.2 µg/mL (≈ 71.2 µM); in the assay with S. schottmuelleri UC 126 (setting [1]), 125 µg/mL (≈ 285 µM); in the assay with S. typhi UC 215, 62.5 µg/mL (≈ 143 µM).

Consider `NC[C@H]1O[C@H](O[C@@H]2[C@@H](N)C[C@@H](N)C[C@H]2OC2O[C@H](CO)[C@@H](O)[C@H]2O)[C@H](N)[C@@H](O)[C@@H]1O` (single isomer, unassigned) [Compound XVβ, O-2,6-Diamino-2,6-dideoxy-α-D-glucopyranosyl (1→4)-O-[β-D-ribofuranosyl(1→5)]-2,6-dideoxy-D-streptamine], for which the zone of inhibition at 100 µg/mL worked out at 20 mm in the assay on E. coli UC 51 (UC51, 0.1 mg/ml, read-out: Zones of Inhibition) and 16 mm in the assay with S. schottmeulleri UC 126 (0.1 mg/ml). Besides, the zone of inhibition at 1000 µg/mL with S. schottmeulleri UC 126 is 24 mm. Besides, the MIC stood at 15.6 µg/mL (≈ 35.6 µM) in the assay with D. pneumoniae UC 41; 31.2 µg/mL (≈ 71.2 µM) in the assay with E. coli UC 311; 125 µg/mL (≈ 285 µM) with P. mirabilis UC 6671 (setting [1]); 31.2 µg/mL (≈ 71.2 µM) with P. vulgaris UC 93 (setting [1]); 31.2 µg/mL (≈ 71.2 µM) in the assay with S. aureus UC 76; 500 µg/mL (≈ 1140 µM) in the assay with S. faecalis UC 694 (UC694, BHI Agar, 37°, 20 hours, read-out: Minimal Inhibitory Concentration). In addition, the MIC is 31.2 µg/mL (≈ 71.2 µM) with S. flexneri UC 143 (setting [1]), 62.5 µg/mL (≈ 143 µM) in the assay on S. marcescens UC 131 (setting [1]) and 7.8 µg/mL (≈ 17.8 µM) with S. schottmuelleri UC 126 (setting [1]).

Regarding `NC[C@H]1O[C@H](O[C@@H]2[C@@H](N)C[C@@H](N)C[C@@H]2O)[C@H](N)[C@@H](O)[C@@H]1O` [6-Deoxy-5-epineamine], the zone of inhibition at 1000 µg/mL in the assay on S. schottmeulleri UC 126 was 21 mm.

`C[C@@]1(O)C[C@H](N)C[C@H](N)[C@H]1O[C@H]1O[C@H](CN)[C@@H](O)[C@H](O)[C@H]1N` [6-Deoxy-5-methylneamine, 6-Deoxy-5-methyl-neamine]: the zone of inhibition at 1000 µg/mL in the assay on S. schottmeulleri UC 126 was found to be 21 mm. The MIC with E. coli UC 45 is 125 µg/mL (≈ 390 µM); in the assay with K. pneumoniae UC 58 (setting [3]), 15.6 µg/mL (≈ 48.7 µM); with P. mirabilis UC 6671 (setting [3]), 250 µg/mL (≈ 780 µM); in the assay with P. morganii UC 3186 (setting [3]), 125 µg/mL (≈ 390 µM); in the assay on P. vulgaris UC 93 (setting [3]) it was 62.5 µg/mL (≈ 195 µM); with S. faecalis UC 694 (UC694, 20 h, read-out: Minimum Inhibitory Concentration) it was above 500 µg/mL. The MIC in the assay with S. flexneri UC 143 (setting [3]) was 125 µg/mL (≈ 390 µM); in the assay on S. marcescens UC 131 (setting [3]) it was 125 µg/mL (≈ 390 µM); with S. pneumoniae I UC 41, 62.5 µg/mL (≈ 195 µM); with S. pyogenes UC 152 (setting [3]), 7.8 µg/mL (≈ 24.3 µM); with S. schottmuelleri UC 126 (setting [3]), 62.5 µg/mL (≈ 195 µM).

Regarding `NC[C@H]1O[C@H](O[C@H]2[C@H](O)C[C@H](N)C[C@@H]2N)[C@H](N)[C@@H](O)[C@@H]1O` [6-deoxyneamine, 6-Deoxyneamine], the MIC is 31.2 µg/mL (≈ 102 µM) in the assay with E. coli UC 45; 62.5 µg/mL (≈ 204 µM) with P. mirabilis UC 6671 (setting [3]); 62.5 µg/mL (≈ 204 µM) in the assay on P. morganii UC 3186 (setting [3]); 31.2 µg/mL (≈ 102 µM) with P. vulgaris UC 93 (setting [3]); 62.5 µg/mL (≈ 204 µM) in the assay on S. flexneri UC 143 (setting [3]); 62.5 µg/mL (≈ 204 µM) in the assay on S. pneumoniae I UC 41. The MIC in the assay on S. schottmuelleri UC 126 (setting [3]) stood at 31.2 µg/mL (≈ 102 µM).

Take `NC[C@H]1O[C@H](O[C@@H]2[C@@H](N)C[C@@H](N)C[C@H]2O[C@@H]2C[C@@H](N)[C@H](O)[C@@H](CO)O2)[C@H](N)[C@@H](O)[C@@H]1O` [Compound XVI, O-2,6-Diamino-2,6-dideoxy-α-D-glucopyranosyl (1→4)-O-[3-amino-2,3-dideoxy-α-D-arabinohexopyranosyl(1→5)-2,6-dideoxy-D-streptamine]]: the values for the zone of inhibition at 1000 µg/mL with S. aureus UC 80 and with S. schottmeulleri UC 126 were 21 mm and 15 mm, respectively. For the same compound, the MIC in the assay on S. faecalis UC 694 (setting [2]), in the assay with S. flexneri UC 143 (setting [1]) and with S. schottmuelleri UC 126 (setting [1]) was above 500 µg/mL throughout.
